The record followed here is ChEMBL document CHEMBL3272338, “Bis-basic-substituted polycyclic aromatic compounds. A new class of antiviral agents. 8. Bis-basic derivatives of carbazole, dibenzofuran, and dibenzothiophene” (1977).

Calls of active or inactive are those of the source. The rule behind the calls is not given here.

Experiment [1] has as its system Human alphaherpesvirus 1. Nature of the experiment: In vivo antiviral activity against Herpesvirus hominis type 1 infected in po dosed white mouse assessed as suppression of raised, blister-like lesions. The format is functional, organism-based.
Experiment [2] has as its system Human alphaherpesvirus 1. Put plainly: In vitro antiviral activity against Herpesvirus hominis type 1 infected in African green monkey Vero cells assessed as log reduction of virus titer by cytopathologic assay (reference value: 5). The format is functional.
Experiment [3] deals with Venezuelan equine encephalitis virus. Nature of the experiment: Antiviral activity against Venezuelan equine encephalitis virus infected in po dosed monkey assessed as reduction in viremia. The format is functional, organism-based.
The next experiment has as its system Semliki Forest virus. Nature of the experiment: Antiviral activity against Semliki forest virus infected in mouse. The format is functional, organism-based.
Experiment [4] concerns Mus musculus. Put plainly: Induction of interferon induction in sc dosed mouse serum. The format is functional, organism-based.
For the next experiment, the system named is Vaccinia virus. Nature of the experiment: Antiviral activity against Vaccinia virus infected in mouse. The format is functional, organism-based. The note with it: Orthopoxvirus vaccinia.
Experiment [5] relates to Influenza A virus. Nature of the experiment: Antiviral activity against Influenza A virus A2 Jap/305 infected in mouse. The format is functional, organism-based.
For experiment [6], the system named is Encephalomyocarditis virus. Put plainly: Antiviral activity against Encephalomyocarditis virus infected in CF-1 mouse assessed as host survival time ratio at 10 mg/kg, sc administered 28, 22, 2 hrs before and 2 hrs after virus inoculation. The format is functional. The note with it: route subcutaneous.
In experiment [7] the test system is Encephalomyocarditis virus. Put plainly: Antiviral activity against Encephalomyocarditis virus infected in CF-1 mouse assessed as host survival time ratio at 250 mg/kg, sc administered 28, 22, 2 hrs before and 2 hrs after virus inoculation. The format is functional. The note with it: route subcutaneous.
Experiment [8] relates to Mus musculus. Nature of the experiment: Induction of interferon induction in po dosed mouse serum. The format is functional, organism-based.
In experiment [9] the test system is Influenza A virus. Put plainly: Antiviral activity against Influenza A virus A0 (Pr8) infected in mouse. The format is functional, organism-based.
Experiment [10] relates to Human alphaherpesvirus 1. Put plainly: In vivo antiviral activity against Herpesvirus hominis type 1 infected in hairless mouse assessed as decrease in lesion score administered topically at 2, 4 and 6 hrs after virus inoculation followed by continuous treatment daily for 4 days four times a day at 2 hrs interval measured on 8th day post-infection. The format is functional, organism-based.

For experiment [11], the system named is Encephalomyocarditis virus. Put plainly: Antiviral activity against Encephalomyocarditis virus infected in CF-1 mouse assessed as host survival time ratio at 50 mg/kg, po administered via gavage at 28, 22, 2 hrs before and 2 hrs after virus inoculation. The format is functional.
For experiment [12], the system named is Encephalomyocarditis virus. Nature of the experiment: Antiviral activity against Encephalomyocarditis virus infected in CF-1 mouse assessed as host survival time ratio at 250 mg/kg, po administered via gavage as single dose at 22 to 28 hrs before virus inoculation. The format is functional.
Experiment [13] concerns Human alphaherpesvirus 1. Nature of the experiment: In vivo antiviral activity against Herpesvirus hominis type 1 infected in hairless mouse assessed as suppression of ulcerated zoster-like lesions development administered topically at 2, 4 and 6 hrs after virus inoculation followed by continuous treatment daily for 4 days four times a day at 2 hrs interval measured on 8th day post-infection. The format is functional, organism-based.

The subject of experiment [14] is Encephalomyocarditis virus. Nature of the experiment: Antiviral activity against Encephalomyocarditis virus infected in CF-1 mouse assessed as host survival time ratio at 50 mg/kg, sc administered 28, 22, 2 hrs before and 2 hrs after virus inoculation. The format is functional. The conditions noted are these: route subcutaneous.
Experiment [15] deals with Encephalomyocarditis virus. Put plainly: Antiviral activity against Encephalomyocarditis virus infected in CF-1 mouse assessed as host survival time ratio at 250 mg/kg, sc administered as single dose at 22 hrs before virus inoculation. The format is functional. The conditions noted are these: route subcutaneous.

Consider `CN(C)CC(=O)c1ccc2sc3ccc(C(=O)CN(C)C)cc3c2c1.Cl`, for which the inhibition entry in the experiment with Human alphaherpesvirus 1 [1] and in the experiment on Human alphaherpesvirus 1 [13] was “inactive” each time. The “log(activity)” value with Human alphaherpesvirus 1 [2] worked out at 2.5. In addition, the inhibition entry (in experiment [3]; in the experiment on Human alphaherpesvirus 1 [10]) was “Active” each time. Also, the outcome in the experiment with Semliki Forest virus, in the experiment with Mus musculus [4], in the experiment with Vaccinia virus, with Influenza A virus [5], in the experiment on Mus musculus [8] and with Influenza A virus [9] was Active. Further, the Ratio in experiment [6] is 1.1; in experiment [7], 2.29; in experiment [11], 1.75; in experiment [12] it was 2.29; in [14], 2.29.

For the compound `CN(C)CC(=O)c1ccc2oc3ccc(C(=O)CN(C)C)cc3c2c1.Cl`, the inhibition entry in the experiment on Human alphaherpesvirus 1 [1] and in the experiment on Human alphaherpesvirus 1 [13] was “inactive” each time. The “log(activity)” value in the experiment on Human alphaherpesvirus 1 [2] turned out to be 2.5. Besides, the inhibition entry (in [3]; in the experiment with Human alphaherpesvirus 1 [10]) was “Active” each time. Also, the result with Semliki Forest virus, in the experiment on Mus musculus [4], in the experiment with Vaccinia virus and in the experiment with Mus musculus [8] was Active. The Ratio in experiment [6] worked out at 1.13; in experiment [7], 2; in [11], 1.8; in experiment [12] it was 2.2; in [14] it was 1.64.

For the compound `Cl.O=C(CCCN1CCC(Cc2ccccc2)CC1)c1ccc2oc3ccc(C(=O)CCCN4CCC(Cc5ccccc5)CC4)cc3c2c1`, the Ratio came out at 1.27 in experiment [6]; 1.82 in experiment [15]; 1.07 in experiment [11]; 0.98 in [12]; 1.7 in [14].

As for `CCN(CC)CCCOc1ccc2oc3ccc(OCCCN(CC)CC)cc3c2c1`, the Ratio in [6] was determined as 0.98; in experiment [15], 1.47; in experiment [11], 0.98; in experiment [12], 0.92; in experiment [14] it was 0.88.

As for `Cl.c1cc2oc3ccc(OCCN4CCCCC4)cc3c2cc1OCCN1CCCCC1`, the Ratio is on record as 0.94 in experiment [6]; 1.02 in experiment [7]; 0.85 in [11]; 1.04 in [12]; 1.25 in [14].

As to `CN(C)CCOc1ccc2sc3ccc(OCCN(C)C)cc3c2c1.Cl`, the Ratio in experiment [6] is listed as 1.09; in [7], 0.91; in [11] it was 0.98; in experiment [12] it was 1.06; in [14], 1.13.
